Tested on: IL-1 alpha biosynthesis in human skin cells (HaCaT keratinocytes)
Experiment: Anti-interleukin-1alpha assay: IL-1 alpha biosynthesis in A23187-stimulated HaCaT keratinocytes, ELISA of cell lysate
Format: cell-based
Details: vs stimulated control (0.2 μM A23187, 6 h)
Procedure: Since interleukin-1 alpha (IL-1 alpha) is a central inflammatory mediator in the skin, the inhibiting effect of the blackberry leaf extract on IL-1 alpha biosynthesis in human skin cells (HaCaT keratinocytes) was investigated. The cells are disseminated in a 96-well microtitre plate (MTP) on the previous day. On the day of the experiment, the test substance solutions are applied in medium in three different concentrations as a triple determination and incubated for 60 min at 37° C. and 5% CO2. Cellular IL-1 alpha biosynthesis is then stimulated by the addition of 0.2 μM A23187 calcium ionophore and the solutions are incubated for a further 6 h. The supernatant is drawn off and the cells undergo lysis through the addition of 1% Triton X 100. The IL-1 alpha in the cell lysate is quantified in an ELISA (human IL-1 alpha ELISA kit, EH2IL1A, Endogen).
The results set out below were obtained from two independent experiments. IL-1 alpha inhibition was calculated in comparison to the stimulated control.

Molecule C[C@@H]1C[C@H]2[C@@H]3CCC4=CC(=O)C=C[C@]4(C)[C@@]3(F)[C@@H](O)C[C@]2(C)[C@@]1(O)C(=O)CO [Dexamethasone] has an inhibition at 0.01 µM (0.01 μM dexamethasone) of 28.8%, an inhibition at 0.1 µM (0.1 μM dexamethasone) of 37.7% and an inhibition at 1 µM (1 μM dexamethasone) of 44.7%.

— patent publication US8354128B2, “Blackberry leaf extract as an active ingredient against skin irritations and inflammations” (Symrise AG, priority 2005, dated 2013)
